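Test compounds were applied to cells in 96-well plates for 48 hours at 5 doses. GI50 = concentration required for 50% inhibition of growth.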 Activity calls are given as the source filed them. Cut-off read from the data, not from the text of the source: active = GI50 up to about 1.1 µM and inactive = higher.
What was measured:
Assay in all cases: DTP human tumour cell line panel, 48 h
[1] = tested on: MOLT-4
[2] = tested on: NCI-H23
[3] = tested on: Malme-3M
[4] = tested on: SK-MEL-2
[5] = tested on: SF-539
[6] = tested on: SF-268
[7] = tested on: SK-MEL-5
[8] = tested on: TK-10
[9] = tested on: SR
[10] = tested on: A549
[11] = tested on: SK-OV-3
[12] = tested on: OVCAR-4
[13] = tested on: HL-60
[14] = tested on: 786-0
[15] = tested on: CAKI-1
[16] = tested on: OVCAR-5
[17] = tested on: A498

| SMILES | GI50 [1] | GI50 [2] | GI50 [3] | GI50 [4] | GI50 [5] | GI50 [6] | GI50 [7] | GI50 [8] | GI50 [9] | GI50 [10] | GI50 [11] | GI50 [12] | GI50 [13] | GI50 [14] | GI50 [15] | GI50 [16] | GI50 [17] |
| --- | --- | --- | --- | --- | --- | --- | --- | --- | --- | --- | --- | --- | --- | --- | --- | --- | --- |
| Cn1c2ccccc2c(=O)c2ccc(Cl)cc21 | > 10 µM (inactive) | > 10 µM (inactive) | > 10 µM (inactive) | > 10 µM (inactive) | 2.51 µM (inactive) | > 10 µM (inactive) | > 10 µM (inactive) | 7.5 µM (inactive) | > 10 µM (inactive) | 6.01 µM (inactive) | 6.71 µM (inactive) | > 10 µM (inactive) | 9.95 µM (inactive) | > 10 µM (inactive) | – | – | – |
| COc1ccc(/C=C/COC(C)=O)cc1OC | > 100 µM (inactive) | > 100 µM (inactive) | > 100 µM (inactive) | > 100 µM (inactive) | > 100 µM (inactive) | > 100 µM (inactive) | > 100 µM (inactive) | > 100 µM (inactive) | > 100 µM (inactive) | > 100 µM (inactive) | > 100 µM (inactive) | > 100 µM (inactive) | – | > 100 µM (inactive) | > 100 µM (inactive) | > 100 µM (inactive) | – |
| C[N+]1(C)C/C(=C/c2ccc(F)cc2)C(=O)/C(=C\c2ccc(F)cc2)C1 | 15.4 µM (inactive) | 32.7 µM (inactive) | 42.1 µM (inactive) | 56.8 µM (inactive) | 38.2 µM (inactive) | 23.3 µM (inactive) | – | > 100 µM (inactive) | – | 74 µM (inactive) | > 100 µM (inactive) | > 100 µM (inactive) | 17.3 µM (inactive) | 49.4 µM (inactive) | – | > 100 µM (inactive) | 31.1 µM (inactive) |
| N#CC(NNC(=O)c1ccccc1O)c1ccccc1O (stereo unspecified) | 2.23 µM (inactive) | 2.06 µM (inactive) | 10 µM (inactive) | 31.3 µM (inactive) | 4.06 µM (inactive) | 2.29 µM (inactive) | 8.89 µM (inactive) | 68.9 µM (inactive) | 0.472 µM (active) | 8.69 µM (inactive) | 9.53 µM (inactive) | 9.64 µM (inactive) | 1.27 µM (inactive) | 3.55 µM (inactive) | 3.27 µM (inactive) | 27.1 µM (inactive) | – |
| CC(C)(C)c1ccc2c(c1)S(=O)(=O)Nc1cccc(c1)NS(=O)(=O)c1cc(C(C)(C)C)ccc1OCCOCCO2 | > 100 µM (inactive) | > 100 µM (inactive) | > 100 µM (inactive) | > 100 µM (inactive) | > 100 µM (inactive) | > 100 µM (inactive) | > 100 µM (inactive) | > 100 µM (inactive) | – | > 100 µM (inactive) | > 100 µM (inactive) | > 100 µM (inactive) | – | > 100 µM (inactive) | > 100 µM (inactive) | > 100 µM (inactive) | > 100 µM (inactive) |
| O=[N+]([O-])c1cccc(-c2oc(/C=N/c3ccccc3)c([N+](=O)[O-])c2-c2cccc([N+](=O)[O-])c2)c1 | > 100 µM (inactive) | > 100 µM (inactive) | > 100 µM (inactive) | > 100 µM (inactive) | > 100 µM (inactive) | > 100 µM (inactive) | > 100 µM (inactive) | > 100 µM (inactive) | – | > 100 µM (inactive) | > 100 µM (inactive) | – | > 100 µM (inactive) | > 100 µM (inactive) | – | > 100 µM (inactive) | > 100 µM (inactive) |
| COc1ccc2c(c1)CCc1c(C(C)=O)c3ccccc3n1C2 | 13.4 µM (inactive) | 16.5 µM (inactive) | 18.1 µM (inactive) | – | 20.7 µM (inactive) | 29.1 µM (inactive) | 6.19 µM (inactive) | 60.4 µM (inactive) | 28.7 µM (inactive) | 11.2 µM (inactive) | – | 28.3 µM (inactive) | 11.5 µM (inactive) | 31.6 µM (inactive) | 24 µM (inactive) | > 100 µM (inactive) | – |
| CC1=C(C(=O)NCc2ccccc2)C(c2ccccc2[N+](=O)[O-])C(C(=O)NCc2ccccc2)=C(C)N1 | 8.93 µM (inactive) | 12.3 µM (inactive) | 13.7 µM (inactive) | – | 8.09 µM (inactive) | 9.18 µM (inactive) | 13.1 µM (inactive) | 17.6 µM (inactive) | 5.13 µM (inactive) | 25.9 µM (inactive) | – | 10.2 µM (inactive) | 3.31 µM (inactive) | 12.8 µM (inactive) | 21.3 µM (inactive) | 22.1 µM (inactive) | 18.2 µM (inactive) |
| C#CCn1c(=O)[nH]c(=O)c2cccnc21 | > 100 µM (inactive) | > 100 µM (inactive) | > 100 µM (inactive) | > 100 µM (inactive) | – | > 100 µM (inactive) | > 100 µM (inactive) | > 100 µM (inactive) | > 100 µM (inactive) | > 100 µM (inactive) | > 100 µM (inactive) | > 100 µM (inactive) | > 100 µM (inactive) | > 100 µM (inactive) | > 100 µM (inactive) | > 100 µM (inactive) | – |
| COc1ccc2c3ccc4c(c3n(C)c2c1)C(=O)C=CC4=O | 2.86 µM (inactive) | 52.1 µM (inactive) | 30.5 µM (inactive) | – | 20.8 µM (inactive) | 44.3 µM (inactive) | > 100 µM (inactive) | – | 2.84 µM (inactive) | > 100 µM (inactive) | > 100 µM (inactive) | 29.6 µM (inactive) | 3.84 µM (inactive) | 17.9 µM (inactive) | – | – | > 100 µM (inactive) |
| OC1OC2COC(c3ccccc3)OC2C(O)C1O (stereo unspecified) | > 100 µM (inactive) | > 100 µM (inactive) | > 100 µM (inactive) | > 100 µM (inactive) | > 100 µM (inactive) | > 100 µM (inactive) | > 100 µM (inactive) | > 100 µM (inactive) | – | > 100 µM (inactive) | > 100 µM (inactive) | > 100 µM (inactive) | > 100 µM (inactive) | > 100 µM (inactive) | > 100 µM (inactive) | > 100 µM (inactive) | > 100 µM (inactive) |
| CS(=O)(=O)C1S(=O)(=O)OCCOS1(=O)=O | > 100 µM (inactive) | > 100 µM (inactive) | > 100 µM (inactive) | – | > 100 µM (inactive) | > 100 µM (inactive) | > 100 µM (inactive) | > 100 µM (inactive) | > 100 µM (inactive) | > 100 µM (inactive) | > 100 µM (inactive) | > 100 µM (inactive) | > 100 µM (inactive) | > 100 µM (inactive) | > 100 µM (inactive) | > 100 µM (inactive) | > 100 µM (inactive) |
| CC#CCC1CCC(OCC)=CC1=O (stereo unspecified) | > 100 µM (inactive) | > 100 µM (inactive) | – | > 100 µM (inactive) | > 100 µM (inactive) | > 100 µM (inactive) | > 100 µM (inactive) | > 100 µM (inactive) | > 100 µM (inactive) | > 100 µM (inactive) | > 100 µM (inactive) | > 100 µM (inactive) | > 100 µM (inactive) | > 100 µM (inactive) | > 100 µM (inactive) | > 100 µM (inactive) | – |
| COc1ccc(Br)c(C(=O)N2CCc3ccccc32)c1N | 31.3 µM (inactive) | 44.9 µM (inactive) | 66.4 µM (inactive) | 25.1 µM (inactive) | 27.5 µM (inactive) | – | 40.2 µM (inactive) | 42.9 µM (inactive) | 20.3 µM (inactive) | 59.6 µM (inactive) | 30.5 µM (inactive) | 34.8 µM (inactive) | 40.6 µM (inactive) | 42.4 µM (inactive) | – | > 100 µM (inactive) | – |
| CC(C)=CC(=O)C/C(=N\NC(N)=S)C(=O)Nc1ccc(Cl)cc1 | > 100 µM (inactive) | > 100 µM (inactive) | > 100 µM (inactive) | > 100 µM (inactive) | > 100 µM (inactive) | > 100 µM (inactive) | > 100 µM (inactive) | > 100 µM (inactive) | – | > 100 µM (inactive) | > 100 µM (inactive) | > 100 µM (inactive) | > 100 µM (inactive) | > 100 µM (inactive) | > 100 µM (inactive) | > 100 µM (inactive) | > 100 µM (inactive) |
| Cc1cn(C2CC(O)C(COC(=O)c3ccccc3)O2)c(=O)[nH]c1=O (stereo unspecified) | > 100 µM (inactive) | > 100 µM (inactive) | > 100 µM (inactive) | – | > 100 µM (inactive) | > 10 µM (inactive) | > 100 µM (inactive) | > 100 µM (inactive) | > 100 µM (inactive) | > 100 µM (inactive) | – | > 100 µM (inactive) | > 100 µM (inactive) | > 100 µM (inactive) | > 100 µM (inactive) | > 100 µM (inactive) | > 100 µM (inactive) |
| CC(C)(C)C(=O)/C=C/c1ccc(Oc2ccccc2)cc1 | 6.95 µM (inactive) | > 10 µM (inactive) | 19.2 µM (inactive) | 16.7 µM (inactive) | > 10 µM (inactive) | 22 µM (inactive) | 16.2 µM (inactive) | 26.6 µM (inactive) | – | 28.5 µM (inactive) | 37.9 µM (inactive) | – | – | 19.4 µM (inactive) | – | 19.3 µM (inactive) | 14.5 µM (inactive) |
| CC(=O)n1cc(CC(C)O)c(=O)[nH]c1=O (stereo unspecified) | > 100 µM (inactive) | > 100 µM (inactive) | – | > 100 µM (inactive) | > 100 µM (inactive) | > 100 µM (inactive) | > 100 µM (inactive) | > 100 µM (inactive) | > 100 µM (inactive) | > 100 µM (inactive) | > 100 µM (inactive) | > 100 µM (inactive) | > 100 µM (inactive) | > 100 µM (inactive) | > 100 µM (inactive) | > 100 µM (inactive) | > 100 µM (inactive) |

— ChEMBL document CHEMBL1201862, “PubChem BioAssay data set” (2004)
